# Results: US20060247249A1 (priority 2005, published 2006)
# Structures can show the parent of a compound that is named as a salt.
# Assays:
# α1A adrenoceptor = target: T1, α1A adrenoceptor (Rattus norvegicus, UniProt P43140); experiment: Radioligand binding, [3H] prazosin displacement, rat submaxillary membranes; settings: for Ki: [3H] prazosin displacement, rat submaxillary membranes, read-out: Affinity for α1A (Rat Submaxillary), Ki; for α1B/α1A: ratio of binding affinities, rat liver vs rat submaxillary
# T1 construct: from tissue; host or cells: rat submaxillary gland membranes
# T1 sequence (P43140 1-466): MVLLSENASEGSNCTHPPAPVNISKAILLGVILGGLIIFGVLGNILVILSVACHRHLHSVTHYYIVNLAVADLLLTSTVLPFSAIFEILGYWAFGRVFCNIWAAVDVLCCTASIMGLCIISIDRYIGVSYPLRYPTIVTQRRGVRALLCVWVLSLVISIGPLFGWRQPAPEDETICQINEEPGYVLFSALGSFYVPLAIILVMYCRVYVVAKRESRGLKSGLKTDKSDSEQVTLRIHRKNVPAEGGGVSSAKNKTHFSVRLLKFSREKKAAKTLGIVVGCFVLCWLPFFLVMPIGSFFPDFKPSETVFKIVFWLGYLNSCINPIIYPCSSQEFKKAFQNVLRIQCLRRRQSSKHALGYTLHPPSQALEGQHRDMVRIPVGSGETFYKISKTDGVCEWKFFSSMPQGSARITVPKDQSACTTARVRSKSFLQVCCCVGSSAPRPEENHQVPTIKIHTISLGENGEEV
# Description: (§1) Receptor binding assays were performed using native α-adrenoceptors. The affinity of different compounds for α1A and α1B adrenoceptor subtypes was evaluated by studying their ability to displace specific [^3H] prazosin binding from the membranes of rat submaxillary and liver respectively (Michel et al, Br J. Pharmacol.; 1989; 98:883). The binding assays were performed according to U'Prichard et al. (Eur J Pharmacol., 1978; 50:87) with minor modifications.
# (§2) Submaxillary glands were isolated immediately after sacrifice. The liver was perfused with buffer (Tris HCl 50 mM, NaCl 100 mM, 10 mM EDTA pH 7.4). The tissues were homogenised in 10 volumes of buffer (Tris HCl 50 mM, NaCl 100 mM, 10 mM EDTA pH 7.4). The homogenate was filtered through two layers of wet gauge and filtrate was centrifuged at 500 g for 10 min. The supernatant was subsequently centrifuged at 40,000 g for 45 min. The pellet thus obtained was resuspended in the same volume of assay buffer (Tris HCl 50 mM, 5 mM EDTA pH 7.4) and were stored at −70° C. until the time of assay.
# (§3) The membrane homogenates (150-250 μg protein) were incubated in 250 μl of assay buffer (Tris HCl 50 mM, EDTA 5 mM, pH 7.4) at 24-25° C. for 1 hour. Non specific binding was determined in the presence of 300 nM prazosin. The incubation was terminated by vacuum filtration over GF/B fibre filters. The filters were then washed with ice cold 50 mM Tris HCl buffer (pH 7.4). The filtermats were dried and bound radioacivity retained on filters was counted. The IC50 and Kd were estimated by using the non linear curve fitting program using G Pad Prism software. The value of inhibition constant Ki was calculated from competitive binding studies by using Cheng & Prusoff equation (Cheng & Prusoff, Biochem Pharmacol, 1973,22: 3099), Ki=IC50/(1+L/Kd) where L is the concentration of [^3H] prazosin used in the particular experiment (Table I).
# α1B adrenoceptor = target: T2, α1B adrenoceptor (Rattus norvegicus, UniProt P15823); experiment: Radioligand binding, [3H] prazosin displacement, rat liver membranes; settings: read-out: Affinity for α1B (Rat Liver), Ki
# T2 construct: from tissue; host or cells: rat liver membranes
# T2 sequence (P15823 1-515): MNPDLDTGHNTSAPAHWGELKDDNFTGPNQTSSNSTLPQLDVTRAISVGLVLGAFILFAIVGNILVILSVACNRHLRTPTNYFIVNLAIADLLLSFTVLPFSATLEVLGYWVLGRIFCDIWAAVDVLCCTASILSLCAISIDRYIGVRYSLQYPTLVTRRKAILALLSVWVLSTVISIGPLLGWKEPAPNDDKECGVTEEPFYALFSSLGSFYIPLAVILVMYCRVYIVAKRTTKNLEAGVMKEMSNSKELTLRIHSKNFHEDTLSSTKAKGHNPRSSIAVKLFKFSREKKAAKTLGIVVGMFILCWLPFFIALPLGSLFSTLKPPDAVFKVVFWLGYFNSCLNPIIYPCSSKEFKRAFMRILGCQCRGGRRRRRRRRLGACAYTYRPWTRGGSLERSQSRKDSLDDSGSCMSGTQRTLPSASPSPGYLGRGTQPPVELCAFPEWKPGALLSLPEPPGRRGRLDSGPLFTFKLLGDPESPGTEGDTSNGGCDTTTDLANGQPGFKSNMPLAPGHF
# Description: as §1, §2, §3
# spleen (α1B) = target: T3, spleen (α1B) (Rattus norvegicus, UniProt P15823); experiment: In vitro functional study, isolated rat spleen, antagonism of phenylepinephrine contraction; format: biochemical; settings: compound at 0.1, 1 and 10 μM
# T3 construct: from tissue; host or cells: isolated rat spleen (male Wistar)
# T3 sequence (P15823 1-515): T2 sequence (P15823 1-515)
# Text: (§4) In order to study selectivity of action of these compounds towards different α-adrenoceptor subtypes, the ability of these compounds to antagonise aorta (α1D), prostate (α1A) and spleen (α1B) was studied. Aorta, prostrate and spleen tissues were isolated from urethane anaesthetized (1.5 g/kg) male wister rats. Isolated tissues were mounted in organ bath containing Krebs Henseleit buffer of the following composition (mM): NaCl 118; KCl 4.7; CaCl2 2.5; MgSO4 7H2O 1.2; NaHCO3 25; KH2PO4 1.2; glucose 11.5. Buffer was maintained at 37° C. and aereated with a mixture of 95% O2 and 5% CO2. A resting tension of 2 g (aorta) or 1 g (spleen and prostate) was applied to tissues. Contractile response was monitored using a force displacement transducer and recorded on chart recorders. Tissues were allowed to equilibrate for 2 hours. At the end of equilibration period, concentration response curves to norepinephrine (aorta) and phenylepinephrine (spleen and prostate) were obtained in the absence and presence of tested compound (at concentration of 0.1, 1 and 10 μM). Antagonist affinity was calculated and expressed as pKB values in Table II.
# aorta (α1D) = target: T4, aorta (α1D) (Rattus norvegicus, UniProt P23944); experiment: In vitro functional study, isolated rat aorta, antagonism of norepinephrine contraction; format: biochemical; settings: compound at 0.1, 1 and 10 μM
# T4 construct: Isolated tissues were mounted in organ bath containing Krebs Henseleit buffer; from tissue; host or cells: isolated rat aorta (male Wistar)
# T4 sequence (P23944 1-561): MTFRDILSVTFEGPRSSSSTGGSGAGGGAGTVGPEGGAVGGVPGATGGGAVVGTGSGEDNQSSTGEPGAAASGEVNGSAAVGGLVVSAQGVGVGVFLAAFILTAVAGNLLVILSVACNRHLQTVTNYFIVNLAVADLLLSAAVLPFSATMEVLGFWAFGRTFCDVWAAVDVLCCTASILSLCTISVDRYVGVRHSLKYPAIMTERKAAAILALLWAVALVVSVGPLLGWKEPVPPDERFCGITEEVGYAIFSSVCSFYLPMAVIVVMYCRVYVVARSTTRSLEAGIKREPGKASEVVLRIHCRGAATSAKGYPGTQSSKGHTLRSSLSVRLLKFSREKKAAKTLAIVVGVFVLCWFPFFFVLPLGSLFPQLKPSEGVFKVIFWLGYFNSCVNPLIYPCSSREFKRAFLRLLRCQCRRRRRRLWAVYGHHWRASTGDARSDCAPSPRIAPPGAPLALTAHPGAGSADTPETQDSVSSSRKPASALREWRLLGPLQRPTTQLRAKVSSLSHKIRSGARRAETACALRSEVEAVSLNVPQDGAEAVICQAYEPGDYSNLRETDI
# Text: as §4
# prostate (α1A) = target: T5, prostate (α1A) (Rattus norvegicus, UniProt P43140); experiment: In vitro functional study, isolated rat prostate, antagonism of phenylepinephrine contraction; format: biochemical
# T5 construct: from tissue; host or cells: isolated rat prostate (male Wistar)
# T5 sequence (P43140 1-466): T1 sequence (P43140 1-466)
# Text: as §4
# α1-adrenoceptor = settings: background statement; cited from earlier work
Molecule,Ki (α1A adrenoceptor),α1B/α1A (α1A adrenoceptor),Ki (α1B adrenoceptor),α1B (pKB) (spleen (α1B)),α1D (pKB) (aorta (α1D)),"Selectivity α1D/α1A (prostate (α1A); functional assays, aorta vs prostate)","Selectivity α1B/α1A (prostate (α1A); functional assays, spleen vs prostate)","α1A (pKB) (prostate (α1A); rat prostate, phenylepinephrine, compound at 0.1, 1 and 10 μM)",α1-adrenergic blocking activity (pKi) (α1-adrenoceptor)
1-Carboxy cyclohex-4-ene-2-[N-{3-(2-ethoxyphenyl)piperazin-1yl}-2-hydroxyphenyl]carboxamide [Compound No. 6],0.398 µM,3,1.24 µM,,,,,,
"O=C(O)C1CC=CCC1C(=O)NCCCN1CCN(c2ccccc2O)CC1 (centres unmarked) [Compound No. 8, 1-Carboxy cyclohex-4-ene-2-[N-{3-(2-hydroxyphenyl)piperazin-1-yl}propyl]carboxamide]",0.593 µM,9,5.08 µM,,,,,,
1-Carboxymethylcyclohex-4-ene-2-[N-{3-(2-isopropoxyphenyl)piperazin-1-yl}-propyl]carboxamide hydrochloride [Compound No. 11],0.00315 µM,31,0.099 µM,,,,,,
"CC(C)Oc1ccccc1N1CCN(CC(O)CNC(=O)C2CC=CCC2C(=O)O)CC1 (centres unmarked) [Compound No. 5, 1-Carboxy cyclohex-4-ene-2-[N-{3-(2-isopropoxyphenyl)piperazin-1-yl}-2-hydroxypropyl]carboxamide]",0.021 µM,84,1.76 µM,,,,,,
COC(=O)CCCC(=O)NCCCN1CCN(c2ccccc2OC)CC1 [hydrochloride],0.139 µM,>7,> 1 µM,,,,,,
COc1ccccc1N1CCN(CC(O)CNC(=O)CCCC(=O)O)CC1 (centres unmarked) [Compound No. 12],> 1 µM,1,> 10 µM,,,,,,
COc1ccccc1N1CCN(CC(O)CNC(=O)C2CC=CCC2C(=O)O)CC1 (centres unmarked) [Compound No. 3],> 1 µM,,> 1 µM,,,,,,
1-Carboxycyclohex-4-ene-2-[N-{3-(2-ethoxyphenyl)piperazin-1-yl}propyl]carboxamide [Compound No. 1],0.02 µM,>50,> 1 µM,8.16,7.24,9.5,1.15,8.22,
"CC(C)Oc1ccccc1N1CCN(CCCNC(=O)C2CC=CCC2C(=O)O)CC1 (centres unmarked) [Compound No. 2, 1-Carboxy cyclohex-4-ene-2-[N-{3-(2-isopropoxyphenyl)piperazin-1-yl}propyl]carboxamide]",0.019 µM,>53,> 1 µM,,,,,,
"O=C(O)CCCC(=O)NCCCN1CCN(c2ccccc2O)CC1 [Compound No. 7, 5-[N-{3-(2-hydroxyphenyl)piperazin-1-yl}]-1-aminopropyl-5-oxo-pentan-1-oic acid]",12.6 µM,1,13 µM,,,,,,
O=C(O)C1CC=CCC1C(=O)NCC(O)CN1CCN(c2ccccc2O)CC1 (centres unmarked) [Compound No. 4],1.89 µM,5,9.74 µM,,,,,,
CC(C)Oc1ccccc1N1CCN(CCCNC(=O)CCCC(=O)O)CC1,0.777 µM,3,2.1 µM,,,,,,
COc1cc2nc(N3CCN(C(=O)c4ccco4)CC3)nc(N)c2cc1OC [prazosin],,,,,,,,,> 8
